Data: PMC3329467, “Stereoselective Regulations of P-Glycoprotein by Ginsenoside Rh2 Epimers and the Potential Mechanisms From the View of Pharmacokinetics” (PLoS ONE, 2012)
Read-outs that look alike come from different tables or passages of the source.

Tests used:
P-gp [1] = assay: Effects of Rh2 epimers on oral pharmacokinetics of P-gp substrate digoxin in rats; assay type: in vivo, rat
Protocol: The rats were divided into five groups with five each. One group of rats received i.g. single dose of the vehicle (0.5% CMC-Na) serving as the control. Two groups were i.g. administered 20(S)-Rh2 suspended in 0.5% CMC-Na at the doses of 5 mg/kg and 50 mg/kg respectively, while another two groups i.g. administration of 20(R)-Rh2 suspended in 0.5% CMC-Na at the doses of 5 mg/kg and 50 mg/kg respectively. Two hours later, P-gp substrate, digoxin (0.25 mg/kg) was given to the rats by i.g. administration. Blood samples were collected before the P-gp substrate dosing and at 0.08, 0.17, 0.25, 0.5, 1, 2, 3, 6, 8 h post-digoxin-dosing. Plasma was obtained by centrifugation at 5000 g for 10 min and stored at −20°C before analysis. Plasma concentrations of digoxin were determined as described previously.
(§1) The pharmacokinetic parameters of digoxin, 20(S)-Rh2 and 20(R)-Rh2 in rats were obtained by noncompartmental analysis using DAS (Drug and Statistics, version 2.1, Chinese Pharmacological Society). The area under the plasma concentration-time curve (AUC) was calculated using the trapezoidal method.

[2] = Oral pharmacokinetics of 20(S)-Rh2 and 20(R)-Rh2 in rats (stereoselective LC-MS); assay type: in vivo, rat; conditions: for Cmax / Tmax / MRT last: Sprague-Dawley, rat, po; for MRT last: read-out: MRT 0-t (converted); for Inverted proportion (chiral inversion): after oral administration of a single configuration of Rh2, rats; for Detection in plasma: after oral administration of 20(R)-Rh2, rats
Protocol: To investigate the differences of pharmacokinetic characteristics between 20(S)-Rh2 and 20(R)-Rh2, rats were divided into 2 groups with five rats for each group. One received a single dose of 20(S)-Rh2 intragastrically at 25 mg/kg suspended in 0.5% CMC-Na, while the other received 20(R)-Rh2 at the same dosage. Blood samples were collected at 0, 30, 60, 180, 240, 300, 360, 480, 660 and 840 min after oral administration into heparinized tubes. Plasma was obtained by centrifugation at 5000 g for 10 min and stored at −20°C before analysis.
The 20(S)-Rh2, 20(R)-Rh2 and the deglycosylation metabolites 20(S)-Ppd and 20(R)-Ppd were quantified simultaneously by reversed-phase LC-MS. An aliquot of 100 µl sample spiked with digitoxin as internal standard was extracted by 1 ml ethylacetate. The analysis was performed on Finnigan LC-MS system (Thermo Electron, San Jose, CA, USA) with a Lux Cellulose-1 Chiral Column (250×4.6 mm, 5 µm, Phenomenex, USA). The column and autosampler tray temperatures were 40 and 4°C, respectively. The mobile phase was consisted of methanol, acetonitrile and 0.1% formic acid with gradient elution (Table 5). Mass spectrometer was operated in positive ESI mode. MS parameters were as follows: spray voltage, 5.0 kV; sheath gas/auxiliary gas, nitrogen; sheath gas pressure, 35×10^5 Pa; auxiliary gas pressure, 20×10^5 Pa; ion transfer capillary temperature, 300°C. Quantification was performed using SIM mode with [M+Na]^+ peak: m/z 645.4 for Rh2; m/z 483.3 for Ppd; m/z 787.5 for digitoxin (internal standard).
as §1

P-gp [3] = target: T1, P-gp (Homo sapiens, UniProt P08183); assay: P-gp mediated bidirectional transport of digoxin across Caco-2 cell monolayers; assay type: cell-based
T1 construct: host or cells: Caco-2 cell monolayers
Protocol: The Caco-2 cell transport model was established as described previously. Then, Hank's balanced salt solution (HBSS) containing 20(S)-Rh2, 20(R)-Rh2, 20(S)-Ppd, 20(R)-Ppd or 0.1% DMSO (control) was loaded into both apical and basolateral chambers. After incubation at 37°C for 1 h, 5 µM digoxin was added to either apical or basolateral side to evaluate the transport in absorptive and secretory direction respectively. After incubation for just another 2 h, samples were taken from the receiving chamber for analysis. Verapamil (10 µM) was used as a positive control. Digoxin was determined by LC-MS/MS. All experiments were conducted in triplicate.
For the transport assay, the apparent permeability coefficient (Papp) and efflux ratio (ER) were calculated as reported previously.

osteoclastgenesis = conditions: cited from earlier work
osteoclasts = conditions: cited from earlier work
[4] = test system: Ca^2+, K^+ and Na^+ channel; design: method as in PMID 15650337, PMID 15979567; conditions: dose- and voltage-dependent; cited from earlier work
[5] = test system: androgen-dependent and –independent prostate cancer cells; design: method as in PMID 20554003; conditions: cited from earlier work
P-glycoprotein (P-gp) = conditions: in vitro and in vivo; cited from earlier work
human fecal microflora = test system: human fecal microflora; design: method as in PMID 11824558; conditions: cited from earlier work
[6] = design: method as in PMID 19524010; conditions: 1–9 mg/kg i.g., rats; cited from earlier work
[7] = in vivo, 25 mg/kg, after oral administration of the same epimer, rats
[8] = in vivo, 25 mg/kg, plasma analyte after i.g. 20(R)-Rh2 25 mg/kg, rats
[9] = in vivo, 25 mg/kg, plasma analyte after i.g. 20(S)-Rh2 25 mg/kg, rats
[10] = plasma analyte after i.g. 20(R)-Rh2 25 mg/kg, rats
[11] = plasma analyte after i.g. 20(S)-Rh2 25 mg/kg, rats
[12] = 1 h preincubation, 5 µM digoxin 2 h, concentration series

T1 sequence (P08183 whole entry): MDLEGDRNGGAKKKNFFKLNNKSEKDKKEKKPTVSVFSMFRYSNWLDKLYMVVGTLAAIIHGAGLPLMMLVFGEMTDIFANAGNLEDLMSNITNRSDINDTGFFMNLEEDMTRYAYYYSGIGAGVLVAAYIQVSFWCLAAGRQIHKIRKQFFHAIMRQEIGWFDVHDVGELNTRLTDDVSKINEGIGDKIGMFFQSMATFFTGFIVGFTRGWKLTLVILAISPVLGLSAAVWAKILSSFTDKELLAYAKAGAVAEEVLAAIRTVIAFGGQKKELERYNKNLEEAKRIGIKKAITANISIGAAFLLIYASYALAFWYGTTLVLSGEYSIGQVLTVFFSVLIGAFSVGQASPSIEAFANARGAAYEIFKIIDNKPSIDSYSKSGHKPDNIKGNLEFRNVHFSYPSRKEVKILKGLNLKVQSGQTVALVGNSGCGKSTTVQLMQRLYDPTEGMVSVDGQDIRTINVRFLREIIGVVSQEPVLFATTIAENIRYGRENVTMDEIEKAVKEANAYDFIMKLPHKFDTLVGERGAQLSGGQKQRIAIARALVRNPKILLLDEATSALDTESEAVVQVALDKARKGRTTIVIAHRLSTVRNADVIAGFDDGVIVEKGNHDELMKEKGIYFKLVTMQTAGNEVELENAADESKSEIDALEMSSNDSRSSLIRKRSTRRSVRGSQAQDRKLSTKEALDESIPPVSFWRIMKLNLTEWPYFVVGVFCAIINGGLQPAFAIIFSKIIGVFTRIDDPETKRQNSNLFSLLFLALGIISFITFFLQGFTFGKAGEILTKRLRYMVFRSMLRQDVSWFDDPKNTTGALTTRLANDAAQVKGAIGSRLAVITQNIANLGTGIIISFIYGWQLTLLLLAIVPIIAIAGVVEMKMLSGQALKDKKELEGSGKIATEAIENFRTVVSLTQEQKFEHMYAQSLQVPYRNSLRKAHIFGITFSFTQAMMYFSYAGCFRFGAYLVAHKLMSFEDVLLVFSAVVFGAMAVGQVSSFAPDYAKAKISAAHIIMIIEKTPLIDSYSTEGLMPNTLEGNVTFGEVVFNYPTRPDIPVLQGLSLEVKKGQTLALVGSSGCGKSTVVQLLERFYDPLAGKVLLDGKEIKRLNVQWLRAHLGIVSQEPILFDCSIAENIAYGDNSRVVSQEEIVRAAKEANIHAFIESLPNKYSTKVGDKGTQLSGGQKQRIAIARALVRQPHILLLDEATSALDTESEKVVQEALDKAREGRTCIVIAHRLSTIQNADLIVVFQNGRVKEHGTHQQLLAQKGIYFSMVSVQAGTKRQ

SMILES: CC(C)=CCC[C@@](C)(O)[C@H]1CC[C@]2(C)[C@@H]1[C@H](O)C[C@@H]1[C@@]3(C)CC[C@H](O[C@@H]4O[C@H](CO)[C@@H](O)[C@H](O)[C@H]4O)C(C)(C)[C@@H]3CC[C@]12C [20(R)-Rh2, 20(R)-ginsenoside Rh2]
- Effect on AUC and Cmax of digoxin (P-gp [1]; 5 mg/kg i.g. prior to i.g. digoxin): significantly enhanced
- Effect on absorption of digoxin compared with control group (P-gp [1]; 50 mg/kg i.g. prior to i.g. digoxin): not changed significantly
- Cmax [2, 7]: ≤ 50 nM
- Cmax [2, 8]: 29 ± 5 ng/mL
- Tmax [2, 8]: 4.75 h
- MRT last [2, 8]: 4.65 h
- Cmax [2, 9]: 17 ± 2 ng/mL
- Tmax [2, 9]: 2.1 h
- MRT last [2, 9]: 2.38 h
- Inverted proportion (chiral inversion) [2]: ~10%
- AUC 0-t [2, 10]: 13204 ± 2322 µg·min/L
- AUC 0-t [2, 11]: 8648 ± 1871 µg·min/L
- Effect on efflux ratio of digoxin across Caco-2 cell monolayers (P-gp [3]; 1 µM, 5 µM digoxin): significantly lowered the efflux ratio of digoxin
- Effect on efflux ratio of digoxin across Caco-2 cell monolayers (P-gp [3]; elevated concentrations, 5 µM digoxin): the efflux ratio of digoxin were restored
- Osteoclastgenesis inhibition (osteoclastgenesis): selective osteoclastgenesis inhibitor
- Cytotoxicity in osteoclasts (osteoclasts): without any cytotoxicity

SMILES: CC(C)=CCC[C@](C)(O)[C@H]1CC[C@]2(C)[C@@H]1[C@H](O)C[C@@H]1[C@@]3(C)CC[C@H](O)C(C)(C)[C@@H]3CC[C@]12C [20(S)-Ppd, 20(S)-protopanaxadiol]
- Cmax [2, 11]: 85 ± 7 ng/mL
- Tmax [2, 11]: 8.67 h
- MRT last [2, 11]: 9.05 h
- AUC 0-t [2, 11]: 35129 ± 2261 µg·min/L
- Effect on efflux ratio of digoxin across Caco-2 cell monolayers (P-gp [3]; [12]): lowered the efflux ratio of digoxin across Caco-2 cell monolayers concentration-dependently

SMILES: CC(C)=CCC[C@@](C)(O)[C@H]1CC[C@]2(C)[C@@H]1[C@H](O)C[C@@H]1[C@@]3(C)CC[C@H](O)C(C)(C)[C@@H]3CC[C@]12C [20(R)-Ppd, 20(R)-protopanaxadiol]
- Detection in plasma [2]: not detected
- Effect on efflux ratio of digoxin across Caco-2 cell monolayers (P-gp [3]; [12]): lowered the efflux ratio of digoxin across Caco-2 cell monolayers concentration-dependently

SMILES: C[C@H]1O[C@@H](O[C@H]2[C@@H](O)C[C@H](O[C@H]3[C@@H](O)C[C@H](O[C@H]4CC[C@@]5(C)[C@H](CC[C@@H]6[C@@H]5C[C@@H](O)[C@]5(C)[C@@H](C7=CC(=O)OC7)CC[C@]65O)C4)O[C@@H]3C)O[C@@H]2C)C[C@H](O)[C@@H]1O [Digoxin]
- Cmax (P-gp [1]; Sprague-Dawley (SD), rat, plasma, po, digoxin 0.25 mg/kg i.g., control (no Rh2)): 9.9 ± 2.6 nM
- AUC 0-t (P-gp [1]; Sprague-Dawley (SD), rat, plasma, po, digoxin 0.25 mg/kg i.g., control (no Rh2), read-out: AUC 0–12 of digoxin): 0.0154 ± 0.0029 µM·h
- MRT last (P-gp [1]; Sprague-Dawley (SD), rat, plasma, po, digoxin 0.25 mg/kg i.g., control (no Rh2), read-out: MRT0–12 of digoxin): 1.7 ± 0.6 h
- half-life (P-gp [1]; Sprague-Dawley (SD), rat, plasma, po, digoxin 0.25 mg/kg i.g., control (no Rh2), read-out: t1/2 of digoxin (converted)): 1.2 ± 0.4 h

SMILES: CC(C)=CCC[C@](C)(O)[C@H]1CC[C@]2(C)[C@@H]1[C@H](O)C[C@@H]1[C@@]3(C)CC[C@H](O[C@@H]4O[C@H](CO)[C@@H](O)[C@H](O)[C@H]4O[C@@H]4O[C@H](CO)[C@@H](O)[C@H](O)[C@H]4O)C(C)(C)[C@@H]3CC[C@]12C [20(R)-ginsenoside Rg3]
- Inhibition of Ca^2+, K^+ and Na^+ channel currents [4]: not

SMILES: CC(C)=CCC[C@](C)(O)[C@H]1CC[C@]2(C)[C@@H]1[C@H](O)C[C@@H]1[C@@]3(C)CC[C@H](O[C@@H]4O[C@H](CO)[C@@H](O)[C@H](O)[C@H]4O)C(C)(C)[C@@H]3CC[C@]12C [20(S)-Rh2, 20(S)-ginsenoside Rh2]
- Cmax [2, 7]: ~1000 nM
- Cmax [2, 8]: 5 ± 1 ng/mL
- Tmax [2, 8]: 2.33 h
- MRT last [2, 8]: 2.2 h
- Cmax [2, 9]: 572 ± 162 ng/mL
- Tmax [2, 9]: 3.45 h
- MRT last [2, 9]: 3.35 h
- Inverted proportion (chiral inversion) [2]: ~10%
- AUC 0-t [2, 10]: 1193 ± 230 µg·min/L
- AUC 0-t [2, 11]: 149888 ± 40725 µg·min/L
- AUC higher than that of 20(R)-Rh2 ([2]; same oral dosage, rats): 10 fold
- Effect on efflux ratio of digoxin across Caco-2 cell monolayers (P-gp [3]; [12]): decreased the efflux ratio of digoxin crossing Caco-2 cell monolayers in a concentration-dependent manner
- Inhibition of proliferation of prostate cancer cells [5]: inhibited the proliferation
- Osteoclastgenesis inhibition (osteoclastgenesis): weak osteoclastgenesis inhibition
- Cytotoxicity in osteoclasts (osteoclasts): strong cytotoxicity
- P-gp inhibition (P-glycoprotein (P-gp)): effective P-gp inhibitor both in vitro and in vivo

SMILES: CC(C)=CCC[C@](C)(O)[C@H]1CC[C@]2(C)[C@@H]1[C@H](O)C[C@@H]1[C@@]3(C)CC[C@H](O[C@@H]4O[C@H](CO)[C@@H](O)[C@H](O)[C@H]4O[C@@H]4O[C@H](CO)[C@@H](O)[C@H](O)[C@H]4O)C(C)(C)[C@@H]3CC[C@]12C [20(S)-ginsenoside Rg3]
- Amount transformed to 20(S)-ginsenoside Rh2, higher than 20(R)-Rg3 to 20(R)-Rh2 (human fecal microflora): 19 fold
- Inhibition of Ca^2+, K^+ and Na^+ channel currents [4]: inhibited

SMILES: CC(C)=CCC[C@@](C)(O)[C@H]1CC[C@]2(C)[C@@H]1[C@H](O)C[C@@H]1[C@@]3(C)CC[C@H](O)C(C)(C)[C@@H]3CC[C@]12C [Ppd, protopanaxadiol]
- Detection in plasma [2]: no Ppd was found

SMILES: CC(C)=CCC[C@](C)(O)[C@H]1CC[C@]2(C)[C@@H]1[C@H](O)C[C@@H]1[C@@]3(C)CC[C@H](O[C@@H]4O[C@H](CO)[C@@H](O)[C@H](O)[C@H]4O)C(C)(C)[C@@H]3CC[C@]12C [Rh2, ginsenoside Rh2]
- Absolute bioavailability [6]: 4.0–6.4%
